Counter-ions that a name gives are not always drawn. Like-named read-outs stand apart in the source and are kept apart here.
Target: androgen receptor (hAR) (Homo sapiens (Human), UniProt P10275)
Assay: Test of transcriptional activity (hAR / ARE-Luc dual-luciferase assay in CHO cells)
Format: cell-based
Details: CHO cells with hAR and ARE-Luc, 24 hours, 10 nM DHT = 100%
Method: In order to examine the transcriptional activity of the agonists of the present invention, the following in-vitro experiment was performed. CHO (Chinese hamster ovary) cell line (ATCC, #CCL-61) was seeded in a 96-well plate at a density of 1.5×10^4 cells/well, and cultured for 24 hours. Then, a plasmid hAR and plasmid ARE-Luc-mixed medium was added thereto. The transfected cell line was treated with 0.1˜10,000 nM of SARM derivatives, and then allowed to react for 24 hours.

[1] = read-out: EC50 [nM] (mean ± SE)

androgen receptor (hAR), sequence (P10275 whole entry): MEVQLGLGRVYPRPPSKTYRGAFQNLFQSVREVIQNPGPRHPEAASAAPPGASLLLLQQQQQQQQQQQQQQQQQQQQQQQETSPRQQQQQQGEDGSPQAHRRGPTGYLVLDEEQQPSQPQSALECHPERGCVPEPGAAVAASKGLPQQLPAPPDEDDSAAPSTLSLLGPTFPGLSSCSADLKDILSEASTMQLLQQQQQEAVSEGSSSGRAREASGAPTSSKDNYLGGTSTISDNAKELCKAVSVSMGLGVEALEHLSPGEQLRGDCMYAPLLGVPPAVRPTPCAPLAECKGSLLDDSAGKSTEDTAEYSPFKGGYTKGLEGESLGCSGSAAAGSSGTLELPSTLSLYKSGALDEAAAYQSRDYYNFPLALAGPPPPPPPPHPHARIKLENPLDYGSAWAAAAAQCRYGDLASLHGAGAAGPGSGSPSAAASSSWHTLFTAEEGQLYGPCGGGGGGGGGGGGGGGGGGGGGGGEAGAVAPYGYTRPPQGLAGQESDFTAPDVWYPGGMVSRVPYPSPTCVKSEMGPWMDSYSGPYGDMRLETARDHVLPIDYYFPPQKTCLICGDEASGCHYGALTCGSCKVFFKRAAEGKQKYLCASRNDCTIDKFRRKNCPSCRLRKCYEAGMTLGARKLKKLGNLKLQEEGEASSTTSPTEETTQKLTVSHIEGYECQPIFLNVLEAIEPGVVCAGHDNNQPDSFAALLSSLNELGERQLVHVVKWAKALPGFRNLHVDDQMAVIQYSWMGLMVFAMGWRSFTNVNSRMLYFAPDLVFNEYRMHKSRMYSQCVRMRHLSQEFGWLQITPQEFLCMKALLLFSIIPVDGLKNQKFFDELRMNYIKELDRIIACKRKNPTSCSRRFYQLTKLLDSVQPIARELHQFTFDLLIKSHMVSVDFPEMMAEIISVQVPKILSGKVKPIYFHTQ

Compound	EC50 [1] [nM]	EC50 (EC50 [nM] (mean ± SE))
CC(=O)Nc1ccc(OC[C@@H]2CN(c3ccc([N+](=O)[O-])c(C)c3)[C@@H](C(F)(F)F)O2)cc1 [Example 54, N-(4-(((2R,5S)-3-(3-methyl-4-nitrophenyl)-2-(trifluoromethyl)oxazolidin-5-yl)methoxy)phenyl)acetamide]	0.86	–
(2R,5S)-N-(6-acetamidopyridin-3-yl)-3-(4-cyano-3-(trifluoromethyl)phenyl)-2-(trifluoromethyl)oxazolidine-5-carboxamide [Example 135]	4.95	–
(2R,5S)-N-(2-chloro-4-cyanophenyl)-3-(4-cyano-3-(trifluoromethyl)phenyl)-2-(trifluoromethyl)oxazolidine-5-carboxamide [Example 114]	201	–
N#Cc1ccc(N2C[C@@H](C(=O)Nc3ccncc3)O[C@@H]2C(F)(F)F)cc1C(F)(F)F [Example 107, (2R,5S)-3-(4-cyano-3-(trifluoromethyl)phenyl)-N-(pyridin-4-yl)-2-(trifluoromethyl)oxazolidine-5-carboxamide]	–	7.18
N#Cc1ccc(OC[C@@H]2CN(c3ccc([N+](=O)[O-])c(C(F)(F)F)c3)[C@H](C(F)(F)F)O2)cc1 [Example 81, 4-(((2S,5S)-3-(4-nitro-3-(trifluoromethyl)phenyl)-2-(trifluoromethyl)oxazolidin-5-yl)methoxy)benzonitrile]	59.5	–
Cc1cc(N2C[C@@H](COc3ccc(/C=N/O)cc3)O[C@@H]2C(F)(F)F)ccc1[N+](=O)[O-] [Example 70, (E)-4-(((2R,5S)-3-(3-methyl-4-nitrophenyl)-2-(trifluoromethyl)oxazolidin-5-yl)methoxy)benzaldehyde oxime]	0.62	–
N#Cc1ccc(N2C[C@@H](COc3ccc(CN)cc3)O[C@@H]2C(F)(F)F)cc1C(F)(F)F [Example 89, 4-((2R,5S)-5-((4-(aminomethyl)phenoxy)methyl)-2-(trifluoromethyl)oxazolidin-3-yl)-2-(trifluoromethyl)benzonitrile hydrochloride]	–	34.2
COC(=O)N1CCN(C(=O)[C@@H]2CN(c3ccc(C#N)c(Cl)c3)[C@@H](C(F)(F)F)O2)CC1 [Example 178, methyl 4-((2R,5S)-3-(3-chloro-4-cyanophenyl)-2-(trifluoromethyl)oxazolidine-5-carbonyl)piperazine-1-carboxylate]	–	21.2
N#Cc1ccc(N2C[C@@H](COc3ccc(NC(=O)[C@@H]4CCCN4)cc3)O[C@@H]2C(F)(F)F)cc1C(F)(F)F [Example 51, (S)-N-(4-(((2R,5S)-3-(4-cyano-3-(trifluoromethyl)phenyl)-2-(trifluoromethyl)oxazolidin-5-yl)methoxy)phenyl)pyrrolidine-2-carboxamide 2,2,2-trifluoroacetate]	–	165
Cc1c(N2C[C@@H](COc3ccc(C#N)nc3)O[C@@H]2C(F)(F)F)ccc(C#N)c1Cl [Example 77, 5-(((2R,5S)-3-(3-chloro-4-cyano-2-methylphenyl)-2-(trifluoromethyl)oxazolidin-5-yl)methoxy)picolinonitrile]	–	10.6
(2R,5S)-N-(4-cyano-2,5-difluorophenyl)-3-(4-cyano-3-(trifluoromethyl)phenyl)-2-(trifluoromethyl)oxazolidine-5-carboxamide [Example 131]	2.35	–
Cc1c(N2C[C@@H](COc3ccc(C#N)cc3)O[C@@H]2C(F)(F)F)ccc(C#N)c1Cl [Example 75, 2-chloro-4-((2R,5S)-5-((4-cyanophenoxy)methyl)-2-(trifluoromethyl)oxazolidin-3-yl)-3-methylbenzonitrile]	–	37
CS(=O)(=O)Nc1ccc(OC[C@@H]2CN(c3ccc(C#N)c(C(F)(F)F)c3)[C@@H](C(F)(F)F)O2)cc1 [Example 39, N-(4-(((2R,5S)-3-(4-cyano-3-(trifluoromethyl)phenyl)-2-(trifluoromethyl)oxazolidin-5-yl)methoxy)phenyl)methanesulfonamide]	–	42.6
N#Cc1ccc(N2C[C@@H](COc3ccc(C(F)(F)F)cc3)O[C@@H]2C(F)(F)F)cc1C(F)(F)F [Example 37, 2-(trifluoromethyl)-4-((2R,5S)-2-(trifluoromethyl)-5-((4-(trifluoromethyl)phenoxy)methyl)oxazolidin-3-yl)benzonitrile]	–	31.6
N#Cc1ccc(N2C[C@@H](C(=O)Nc3ccc(NC(=O)CN)cc3)O[C@@H]2C(F)(F)F)cc1C(F)(F)F [Example 163, (2R,5S)-N-(4-(2-aminoacetamido)phenyl)-3-(4-cyano-3-(trifluoromethyl)phenyl)-2-(trifluoromethyl)oxazolidine-5-carboxamide hydrochloride]	–	214
(2R,5S)-N-(3-chloro-4-cyano-2-fluorophenyl)-3-(4-cyano-3-(trifluoromethyl)phenyl)-2-(trifluoromethyl)oxazolidine-5-carboxamide [Example 130]	10.2	–

Compound	EC50 [1] [nM]	EC50 (EC50 [nM] (mean ± SE))
N#Cc1ccc(OC[C@@H]2CN(c3ccc(C#N)c(Cl)c3)[C@@H](C(F)(F)F)O2)cn1 [Example 73, 5-(((2R,5S)-3-(3-chloro-4-cyanophenyl)-2-(trifluoromethyl)oxazolidin-5-yl)methoxy)picolinonitrile]	–	0.991
(2R,5S)-3-(3-chloro-4-cyanophenyl)-N-(6-cyanopyridin-3-yl)-2-(trifluoromethyl)oxazolidine-5-carboxamide [Example 120]	11.1	–
O=[N+]([O-])c1ccc(N2C[C@@H](COc3ccncc3)O[C@@H]2C(F)(F)F)cc1C(F)(F)F [Example 66, (2R,5S)-3-(4-nitro-3-(trifluoromethyl)phenyl)-5-((pyridin-4-yloxy)methyl)-2-(trifluoromethyl)oxazolidine]	19.9	–
N#Cc1ccc(N2C[C@@H](COc3cccnc3)O[C@@H]2C(F)(F)F)cc1C(F)(F)F [Example 60, 4-((2R,5S)-5-((pyridin-3-yloxy)methyl)-2-(trifluoromethyl)oxazolidin-3-yl)-2-(trifluoromethyl)benzonitrile]	–	10.4
CCOC(=O)Nc1ccc(OC[C@@H]2CN(c3ccc(C#N)c(C(F)(F)F)c3)[C@@H](C(F)(F)F)O2)cc1 [Example 41, ethyl(4-(((2R,5S)-3-(4-cyano-3-(trifluoromethyl)phenyl)-2-(trifluoromethyl)oxazolidin-5-yl)methoxy)phenyl)carbamate]	–	16.2
N#Cc1ccc(NC(=O)[C@@H]2CN(c3ccc(C#N)c(C(F)(F)F)c3)[C@@H](C(F)(F)F)O2)cc1C(F)(F)F [Example 144, (2R,5S)-N,3-bis(4-cyano-3-(trifluoromethyl)phenyl)-2-(trifluoromethyl)oxazolidine-5-carboxamide]	–	11.1
CCc1cc(C#N)ccc1NC(=O)[C@@H]1CN(c2ccc(C#N)c(C(F)(F)F)c2)[C@@H](C(F)(F)F)O1 [Example 145, (2R,5S)-N-(4-cyano-2-ethylphenyl)-3-(4-cyano-3-(trifluoromethyl)phenyl)-2-(trifluoromethyl)oxazolidine-5-carboxamide]	–	305
N#Cc1ccc(NC(=O)[C@@H]2CN(c3ccc(C#N)c(C(F)(F)F)c3)[C@@H](C(F)(F)F)O2)c(F)c1 [Example 139, (2R,5S)-N-(4-cyano-2-fluorophenyl)-3-(4-cyano-3-(trifluoromethyl)phenyl)-2-(trifluoromethyl)oxazolidine-5-carboxamide]	–	2.74
CNC(=O)Nc1ccc(OC[C@@H]2CN(c3ccc(C#N)c(C(F)(F)F)c3)[C@@H](C(F)(F)F)O2)cc1 [Example 16, 1-(4-(((2R,5S)-3-(4-cyano-3-(trifluoromethyl)phenyl)-2-(trifluoromethyl)oxazolidin-5-yl)methoxy)phenyl)-3-methylurea]	–	21.3
N#Cc1ccc(N2C[C@@H](COc3ccc(NC(=O)Oc4ccccc4)cc3)O[C@@H]2C(F)(F)F)cc1C(F)(F)F [Example 43, phenyl (4-(((2R,5S)-3-(4-cyano-3-(trifluoromethyl)phenyl)-2-(trifluoromethyl)oxazolidin-5-yl)methoxy)phenyl)carbamate]	–	21.3
N#Cc1ccc(N2C[C@@H](COc3ccncc3)O[C@H]2C(F)(F)F)cc1C(F)(F)F [Example 80, 4-((2S,5S)-5-((pyridin-4-yloxy)methyl)-2-(trifluoromethyl)oxazolidin-3-yl)-2-(trifluoromethyl)benzonitrile]	–	34
CC(=O)N1CCC(NC(=O)[C@@H]2CN(c3ccc(C#N)c(C(F)(F)F)c3)[C@@H](C(F)(F)F)O2)CC1 [Example 170, (2R,5S)-N-(1-acetylpiperidin-4-yl)-3-(4-cyano-3-(trifluoromethyl)phenyl)-2-(trifluoromethyl)oxazolidine-5-carboxamide]	–	3560
(2R,5S)-N-(4-cyano-2-methylphenyl)-3-(4-cyano-3-(trifluoromethyl)phenyl)-2-(trifluoromethyl)oxazolidine-5-carboxamide [Example 133]	44	–
N#Cc1ccc(N2C[C@@H](C(=O)Nc3ccnc(Cl)c3)O[C@@H]2C(F)(F)F)cc1C(F)(F)F [Example 142, (2R,5S)-N-(2-chloropyridin-4-yl)-3-(4-cyano-3-(trifluoromethyl)phenyl)-2-(trifluoromethyl)oxazolidine-5-carboxamide]	–	0.79
N#Cc1ccc(NC(=O)[C@@H]2CN(c3ccc(C#N)c(C(F)(F)F)c3)[C@@H](C(F)(F)F)O2)cc1F [Example 147, (2R,5S)-3-(4-cyano-3-(trifluoromethyl)phenyl)-N-(4-cyano-3-fluorophenyl)-2-(trifluoromethyl)oxazolidine-5-carboxamide]	–	768
CC(=O)Nc1ccc(NC(=O)[C@@H]2CN(c3ccc(C#N)c(C(F)(F)F)c3)[C@@H](C(F)(F)F)O2)cc1 [Example 109, (2R,5S)-N-(4-acetamidophenyl)-3-(4-cyano-3-(trifluoromethyl)phenyl)-2-(trifluoromethyl)oxazolidine-5-carboxamide]	–	5.09

— patent US9809583B2 (priority 2014, dated 2017)
